# Assays:
# [1] = tested on: white blood cells; assay: mRNA expression profiles of white blood cells after treatment, no diarrhoea vs. diarrhoea subjects; assay type: in vivo, human; conditions: treated
# Description: Samples. Forty-three out of the ninety-one subjects who enrolled in the clinical trial consented to clinical pharmacogenetics analysis. For each subject, two clinical pharmacogenetics blood samples were scheduled: baseline and on Day 2 of Week 1 at hour 24. White blood cell (WBC) pellets were ficoll-hypaque separated from the whole blood by the investigator, frozen at −80° C. mRNA was extracted and profiled on the Affymetrix U95A GeneChip® platform.
# mRNA expression profiling analysis. Any array with greater than 20% of genes called present by the Affymetrix MAS5 algorithm was a candidate for the analyses described herein. Affymetrix, “New statistical algorithms for monitoring gene expression on GeneChip® probe arrays.” Affymetrix Technical Notes. (2001). […] Forty-two out of the possible eighty-six arrays met the quality standards needed for analysis.
# (§1) Statistical analysis. Fisher's Exact tests were performed to compare the demographics of the clinical pharmacogenetics participants to the overall trial population. An analysis of variance (ANOVA) was used to determine whether mRNA gene expression patterns correlated to either treatment status (baseline vs. treated), to experiencing diarrhoea (no diarrhoea vs. diarrhoea) or to whether specific blood cell type levels correlated to experiencing diarrhoea. All statistical analyses were performed using the SigmaStat 2.03 and SAS 8.02 programs.
# Because there were only three subjects who experienced grade 3 diarrhoea, all fifteen subjects who experienced any grade of diarrhoea were grouped together to strengthen the statistical power of this analysis.
# A comparison of the mRNA expression profiles of white blood cells identified eight genes with statistically significant differences between the two groups of subjects 24 hours after epothilone B administration. See, TABLE 3.
# Compare, TABLE 8 and TABLE 13.
# [2] = Blood cell, haematocrit and haemoglobin levels after epothilone B treatment by diarrhoea status; assay type: in vivo, human; conditions: for Basophils / Eosinophils / Haematocrit / Haemoglobin / Lymphocytes / Monocytes / Neutrophils / Platelets / White Blood Cells: CPG subjects after a single dose, mean ± SEM
# Description: as §1
# Next, the levels of each blood cell type were compared between the two groups of subjects. Because these values were not determined at the blood draw timepoint, values for the second blood draw timepoint after baseline in cycle 1, corresponding to the first blood draw after the first epothilone B treatment (usually 24 hours after the […]) were used for this comparison. […] See, TABLE 4 and FIGS. 1-2.
# Because females generally have lower levels of haematocrit and haemoglobin compared to males, a similar analysis was done by sex. As shown in TABLE 5 and FIGS. 1-2, similar trends in haematocrit and haemoglobin levels were identified for each sex. To determine if these associations exist for the entire trial subject population, the haematocrit and haemoglobin levels for all subjects at the second blood draw after baseline in cycle 1 were investigated.
# [3] = grade 3 diarrhoea subjects, average of arrays
# [4] = CPG Females after a single dose, Diarrhoea (n = 10)
# [5] = CPG Females after a single dose, No Diarrhoea (n = 4)
# [6] = CPG Males after a single dose, Diarrhoea (n = 5)
# [7] = CPG Males after a single dose, No Diarrhoea (n = 1)
# [8] = all Females after treatment, Diarrhoea (n = 42)
# [9] = all Females after treatment, No Diarrhoea (n = 22)
# [10] = all Males after treatment, Diarrhoea (n = 16)
# [11] = all Males after treatment, No Diarrhoea (n = 11)
# [12] = all subjects after treatment, Diarrhoea any grade (n = 58)
# [13] = all subjects after treatment, No Diarrhoea (n = 33)
compound,measurement,setting,value
"C/C(=C\c1csc(C)n1)[C@@H]1C[C@@H]2O[C@]2(C)CCC[C@H](C)[C@H](O)[C@@H](C)C(=O)C(C)(C)[C@@H](O)CC(=O)O1 [epothilone B, Epothilone B]",Fold Change [diarrhoea/no diarrhoea] 1274_s_at (CDC34),[1]; grade 3 diarrhoea,−2.3
same,Fold Change [diarrhoea/no diarrhoea] 33336_at (SLC4A1),[1]; grade 3 diarrhoea,−15.9
same,Fold Change [diarrhoea/no diarrhoea] 33759_at (BPGM),[1]; grade 3 diarrhoea,^f−6.7
same,Fold Change [diarrhoea/no diarrhoea] 37285_at (ALAS2),[1]; grade 3 diarrhoea,−10.0
same,Fold Change [diarrhoea/no diarrhoea] 37405_at (SELENBP1),[1]; grade 3 diarrhoea,^f−10.3
same,Fold Change [diarrhoea/no diarrhoea] 39436_at (BNIP3L),[1]; grade 3 diarrhoea,−2.8
same,"Signal Value 297_g_at (Tubulin, beta)",[1]; [3],77
same,Signal Value 477_at (IRF5),[1]; [3],264
same,Signal Value 1274_s_at (CDC34),[1]; [3],123
same,Signal Value 33336_at (SLC4A1),[1]; [3],90
same,Signal Value 33759_at (BPGM),[1]; [3],51
same,Signal Value 37285_at (ALAS2),[1]; [3],428
same,Signal Value 37405_at (SELENBP1),[1]; [3],113
same,Signal Value 39436_at (BNIP3L),[1]; [3],1489
same,HCT,[2]; [4],35.63 ± 0.01%
same,HGB,[2]; [4],12.01 ± 0.35 g/dL
same,HCT,[2]; [5],30.63 ± 0.20%
same,HGB,[2]; [5],10.40 ± 0.20 g/dL
same,HCT,[2]; [6],38.30 ± 1.77%
same,HGB,[2]; [6],13.18 ± 0.62 g/dL
same,HCT,[2]; [7],26.30%
same,HGB,[2]; [7],8.70 g/dL
same,Basophils,[2]; Diarrhoea (n = 15),0.57 ± 0.12%
same,Eosinophils,[2]; Diarrhoea (n = 15),2.74 ± 0.45%
same,Haematocrit,[2]; Diarrhoea (n = 15),36.11 ± 0.91%
same,Haemoglobin,[2]; Diarrhoea (n = 15),12.40 ± 0.33 g/dL
same,Lymphocytes,[2]; Diarrhoea (n = 15),19.92 ± 1.92%
same,Monocytes,[2]; Diarrhoea (n = 15),7.88 ± 0.71%
same,Neutrophils,[2]; Diarrhoea (n = 15),68.81 ± 2.38%
same,Platelets,[2]; Diarrhoea (n = 15),259.20 ± 23.25 THOU/MM^3
same,White Blood Cells,[2]; Diarrhoea (n = 15),5.60 ± 0.44 THOU/MM^3
same,Basophils,[2]; No Diarrhoea (n = 5),0.64 ± 0.22%
same,Eosinophils,[2]; No Diarrhoea (n = 5),3.42 ± 0.73%
same,Haematocrit,[2]; No Diarrhoea (n = 5),29.76 ± 0.87%
same,Haemoglobin,[2]; No Diarrhoea (n = 5),10.06 ± 0.84 g/dL
same,Lymphocytes,[2]; No Diarrhoea (n = 5),14.50 ± 0.74%
same,Monocytes,[2]; No Diarrhoea (n = 5),8.10 ± 0.74%
same,Neutrophils,[2]; No Diarrhoea (n = 5),73.60 ± 2.05%
same,Platelets,[2]; No Diarrhoea (n = 5),334.40 ± 54.80 THOU/MM^3
same,White Blood Cells,[2]; No Diarrhoea (n = 5),5.92 ± 0.87 THOU/MM^3
same,HCT,[2]; [8],34.34 ± 0.69%
same,HGB,[2]; [8],11.56 ± 0.25 g/dL
same,HCT,[2]; [9],33.17 ± 0.94%
same,HGB,[2]; [9],11.13 ± 0.30 g/dL
same,HCT,[2]; [10],32.84 ± 1.50%
same,HGB,[2]; [10],12.46 ± 0.44 g/dL
same,HCT,[2]; [11],37.48 ± 1.39%
same,HGB,[2]; [11],11.06 ± 0.46 g/dL
same,HCT,[2]; [12],35.21 ± 0.67%
same,HGB,[2]; [12],11.81 ± 0.22 g/dL
same,HCT,[2]; [13],33.06 ± 0.77%
same,HGB,[2]; [13],11.11 ± 0.25 g/dL

# — US20070289889A1, “Biomarkers For The Prediction Of Drug-In Duced Diarrhea” (NOVARTIS AG, priority 2003, published 2007)
